This note sets out measurements from patent publication US6413974B1, “6,9,-disubstituted 2-[trans-(4-aminocyclohexyl) amino] purines” (Aventis Pharmaceuticals Inc., priority 1998, dated 2002).

Where “and” joins values, the source holds several entries; their conditions need not be identical. Identical values can stand only once. Counter-ions that a name gives are not always drawn. Like-named read-outs stand apart in the source and are kept apart here.

One assay deals with T1, cdk2/cyclin E (Homo sapiens, UniProt P24941).
T1 construct: made in house; host or cells: insect cells (baculovirus co-infection)
Briefly: Cyclin-Dependent Kinase 2 Assay (cdk-2 inhibition). It is filed as biochemical. The settings on record: GST-Rb substrate, 30 min at 30° C. How it is done:
(§1) The transformed bacteria were grown overnight to saturation, then diluted in YT broth and incubated at 37° C. for 2 h. The protein was induced by incubation with 0.1 mM isopropylthioglycoside for 3 h. Following sedimentation by centrifugation, the cells were lysed by sonication in STE buffer ([…] NaCl, 10 mM Tris, pH 8.0, 1 mM EDTA) containing 10% sarkosyl. Particulate matter was removed by centrifugation and the lysate was incubated with glutathione-Sepharose at 4° C. The beads were washed with kinase buffer and then quantitation of Coomassie blue-stained proteins separated by SDS-PAGE was performed using a protein standard of known concentration.
(§2) Pre-wet Millipore Multiscreen 96-well filter plates (0.65 μm Durapore filters) with 200 μl kinase buffer (50 mM HEPES, pH 7.5, 10 mM MgCl2, 1 mM EGTA). GST-Rb (0.5 μg) bound to glutathione-Sepharose beads is added in 50 μl per well and the solution removed by application of vacuum. […] Add 0.1 μg cdk4/cyclin D1 (insect cell lysate) to initiate assay. Incubate 30 min at 37° C. Terminate reaction by filtration on Millipore Vacuum Manifold. Wash four times with TNEN (20 mM Tris, pH 8.0, 100 mM Na Cl, 1 mM EDTA, 0.5% nonidet P-40). After drying the plates at room temperature, the filter plates were placed in adapter plates (Packard) and 40 μl of Microscint-O® (Packard) was added to each well. Top Seal A film was used to cover the plates before counting in a Top Count Scintillation Counter.
GST-Rb as described above for cdk4/cyclin D1
Assay conditions for cdk2/cyclin E were identical to those for cdk4/cyclin D1 including the substrate. The concentration of recombinant cdk2/cyclin E in the assay was 0.1 μg per 100 μl assay. Incubation was for 30 min at 30° C.

For the next assay, the target named is T2, cdk4/cyclin D1 (Homo sapiens, UniProt P11802).
T2 construct: made in house; host or cells: Sf9 insect cells (Bac-to-Bac baculovirus, pFastBac)
T2 sequence (P11802 whole entry): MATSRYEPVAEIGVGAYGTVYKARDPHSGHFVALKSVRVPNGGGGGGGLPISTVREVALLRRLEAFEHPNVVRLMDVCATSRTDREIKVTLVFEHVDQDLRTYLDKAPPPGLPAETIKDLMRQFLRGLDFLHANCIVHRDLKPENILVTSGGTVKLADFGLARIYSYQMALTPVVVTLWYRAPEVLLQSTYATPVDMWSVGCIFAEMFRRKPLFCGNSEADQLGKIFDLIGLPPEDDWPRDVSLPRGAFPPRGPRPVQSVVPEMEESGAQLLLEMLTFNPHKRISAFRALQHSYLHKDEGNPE
T2 sequence (P24385 whole entry partner): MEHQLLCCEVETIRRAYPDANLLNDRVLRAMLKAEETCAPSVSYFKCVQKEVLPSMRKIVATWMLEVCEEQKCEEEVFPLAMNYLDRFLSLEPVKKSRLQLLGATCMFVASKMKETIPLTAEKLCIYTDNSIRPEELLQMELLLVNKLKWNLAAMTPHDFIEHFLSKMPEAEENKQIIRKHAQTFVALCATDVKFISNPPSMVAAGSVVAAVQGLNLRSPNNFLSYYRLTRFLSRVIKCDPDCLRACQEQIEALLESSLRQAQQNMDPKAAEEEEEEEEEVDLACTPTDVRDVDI
Briefly: Cyclin-dependent kinase 4 Assay. It is filed as biochemical. The settings on record: cdk4/cyclin D1, GST-Rb substrate, 10 μM ATP, 30 min at 37° C.; read-out: CDK4 Inhibition IC50. As to the method:
The IC50 values for cdk-4 inhibition were by the following method:
as §1
The cDNA for human cyclin D1 was cloned by RT PCR using […] from MCF-7 cells. […] Bacmid DNA was used to transfect Sf9 insect cells to produce recombinant virus. Following plaque purification of the virus, the viral preparations were amplified until high titer stocks were acheived.
Lysates were prepared by lysis of Sf9 cells coinfected with cdk4 and cyclin D1 in 50 mM HEPES, pH 7.5, 10 mM MgCl2, 1 mM DTT, 0.1 mM phenylmethylsulfonyl fluoride, 5 μg/ml aprotinin, and 5 μg/ml leupeptin using a PARR bomb under 500 p.s.i nitrogen pressure for 5 min at 4° C. Insoluble material was sedimented at 10,000×g for 20 min at 4° C. Glycerol was added to the supernatant to 10% and stored at −80° C. in aliquots.
as §2

A further assay concerns MDA-MB-231. Briefly: In vitro tumor cell proliferation, MDA-MB-231. It is filed as cell-based, human. The note with it: read-out: In vitro Tumor Cell Proliferation (IC50, μM) Breast MDA-MB-231. How it is done: (§3) The proliferation of tumor cells was measured using a sulforhodamine B assay as described in Skehan, P., et al., J. Natl. Cancer Inst. […] Tumor cells were harvested with trypsin-EDTA, cells that excluded trypan blue were counted, added to 96-well plates and incubated overnight at 37° C. Drug was added to the wells following dilution in culture medium. Three days later, the medium was removed and replenished with medium containing fresh drug and incubated an additional 4 days. The cells were then fixed with 0.1 ml 10% trichloroacetic acid for 60 min at 4° C. The plates were rinsed five times with tap water, air-dried and stained for 30 min with 0.4% sulforhodamine B in 1% acetic acid and air-dried.
(§4) Alternatively, the CyQUANT cell proliferation assay was used to quantify tumor cell proliferation. Tumor cells were harvested with trypsin-EDTA, cells that excluded trypan blue were counted, added to 96-well plates and incubated overnight at 37° C. Drug was added to the wells following dilution in culture medium. Three days later the medium was removed and the plates frozen at −80° C. for at least 30 minutes.

The next assay deals with MDA-MB-435. Briefly: In vitro tumor cell proliferation, MDA-MB-435. It is filed as cell-based, human. The note with it: read-out: In vitro Tumor Cell Proliferation (IC50, μM) Breast MDA-MB-435. How it is done: as §3, §4
In a further assay the test system is HT-29. The experiment in a line: In vitro tumor cell proliferation, HT-29. The format is cell-based, human. The settings on record: read-out: In vitro Tumor Cell Proliferation (IC50, μM) Colon HT-29 (converted). As to the method: as §3, §4
HT-29 is a human colon adenocarcinoma, moderately well-differentiated grade II (HTB 38);

Another assay deals with Colo-205. The experiment in a line: In vitro tumor cell proliferation, Colo-205. It is filed as cell-based, human. The settings on record: read-out: In vitro Tumor Cell Proliferation (IC50, μM) Colon Colo-205. How it is done: as §3, §4
A further assay concerns A549. Briefly: In vitro tumor cell proliferation, A549. It is filed as cell-based, human. The settings on record: read-out: In vitro Tumor Cell Proliferation (IC50, μM) Lung A549. How it is done: as §3, §4
The subject of another assay is DMS-114. Briefly: In vitro tumor cell proliferation, DMS-114. The format is cell-based, human. The settings on record: read-out: In vitro Tumor Cell Proliferation (IC50, μM) Lung DMS-114. How it is done:
as §3, §4

Another assay deals with DU 145. The experiment in a line: In vitro tumor cell proliferation, DU 145. The note with it: read-out: In vitro Tumor Cell Proliferation (IC50, μM) Prostate DUI45. The format is cell-based, human. How it is done:
as §3, §4

For the next assay, the system named is PC-3. Briefly: In vitro tumor cell proliferation, PC-3. It is filed as cell-based, human. The note with it: read-out: In vitro Tumor Cell Proliferation (IC50, μM) Prostate PC-3. As to the method: as §3, §4
Where [1] appears, read: Homo sapiens, MDA-MB-231, values marked * (mark not explained).
[2] abbreviates: values marked * (mark not explained), dihydrochloride.
The mark [3] stands for this setting: Homo sapiens, HT-29, values marked * (mark not explained).
Setting [4] is: Homo sapiens, COLO 205, values marked * (mark not explained).
[5] abbreviates: Homo sapiens, A549, values marked * (mark not explained).
Setting [6] is: Homo sapiens, DMS-114, values marked * (mark not explained).
Setting [7] is: Homo sapiens, DU-145, values marked * (mark not explained).
[8] abbreviates: Homo sapiens, MDA-MB-435, values marked * (mark not explained).
[9] abbreviates: Homo sapiens, PC-3, values marked * (mark not explained).

With `N[C@H]1CC[C@H](Nc2nc(NCCc3ccncc3)c3ncn(C4CCCC4)c3n2)CC1` [Example 31, 2-[Trans-(4-aminocyclohexyl)amino]-6-[(4-pyridyl)-2-ethylamino]-9-cyclopentylpurine dihydrochloride], the IC50 on cdk2/cyclin E is 0.08 µM and 0.06 µM; at cdk4/cyclin D1, 0.49 µM and 1 µM; in the assay with MDA-MB-231 (setting [1]), 7.4 µM; in the assay with MDA-MB-231 (setting [2]) it was 8.6 µM; in the assay with MDA-MB-435 (setting [2]), 10 µM; with HT-29 (setting [3]), 10 µM. In addition, the IC50 with HT-29 (setting [2]) is 7.3 µM; in the assay on Colo-205 (setting [4]) it was 5.6 µM; with Colo-205 (setting [2]), 6.6 µM; with A549 (setting [5]), 10 µM; in the assay with DMS-114 (setting [6]), 5.6 µM; in the assay on DU 145 (setting [7]), 6.7 µM. For the same compound, in the assay on DU 145 (setting [2]), the IC50 stood at 4.4 µM.

`N[C@H]1CC[C@H](Nc2nc(NNCC(F)(F)F)c3ncn(C4CCCC4)c3n2)CC1` [Example 52, 2-[Trans-(4-aminocyclohexyl)amino]-6-[2,2,2-trifluoroethylhydrazino]-9-cyclopentylpurine dihydrochloride]: the IC50 against cdk2/cyclin E is 91 nM and 44 nM (2×); on cdk4/cyclin D1, 1.8 µM; in the assay on MDA-MB-231 (setting [1]), 2.7 µM; in the assay on MDA-MB-231 (setting [2]), 3.1 µM; in the assay on MDA-MB-435 (setting [8]), 5.6 µM; in the assay with MDA-MB-435 (setting [2]) it was 5.1 µM. Also, the IC50 in the assay with HT-29 (setting [3]) was 3.6 µM; with Colo-205 (setting [4]) it was 3.1 µM; in the assay with Colo-205 (setting [2]), 3.2 µM; in the assay on DMS-114 (setting [6]), 1.7 µM; in the assay with DU 145 (setting [7]), 2.3 µM; in the assay with DU 145 (setting [2]), 2.8 µM.

As to `N[C@H]1CC[C@H](Nc2nc(NCCCN3CCOCC3)c3ncn(C4CCCC4)c3n2)CC1` [Example 9, 2-[Trans-(4-aminocyclohexyl)amino]-6-[3-(4-morpholinyl)propylamino]-9-cyclopentylpurine dihydrochloride], the IC50 at cdk2/cyclin E was 0.09 µM and 0.15 µM; at cdk4/cyclin D1, 0.3 µM and 0.4 µM; in the assay with MDA-MB-231 (setting [1]), 2.7 µM; with MDA-MB-231 (setting [2]), 2.6 µM; in the assay with MDA-MB-435 (setting [8]), 5.2 µM; in the assay with MDA-MB-435 (setting [2]) it was 6 µM. The IC50 with HT-29 (setting [3]) was 5.6 µM; with HT-29 (setting [2]) it was 5.1 µM; with DMS-114 (setting [6]), 3.7 µM; with DMS-114 (setting [2]), 2.8 µM; with PC-3 (setting [9]) it was 4.6 µM; in the assay on PC-3 (setting [2]), 3.1 µM. For the same compound, the IC50 in the assay with DU 145 (setting [7]) was 4.4 µM; with DU 145 (setting [2]), 3.2 µM.

In the case of `CCC(C)(CO)Nc1nc(N[C@H]2CC[C@H](N)CC2)nc2c1ncn2C1CCCC1` (stereo partly drawn) [Example 23, dihydrochloride], the IC50 was 0.27 µM on cdk2/cyclin E; 4 µM and 2.5 µM on cdk4/cyclin D1; 19 µM in the assay with MDA-MB-231 (setting [1]); 25 µM in the assay with MDA-MB-231 (setting [2]); 23 µM in the assay with MDA-MB-435 (setting [8]); 38 µM in the assay on MDA-MB-435 (setting [2]). Moreover, the IC50 was 16 µM in the assay on HT-29 (setting [3]); > 20 µM in the assay with HT-29 (setting [2]); 10 µM with A549 (setting [2]); 28 µM in the assay with DMS-114 (setting [6]); 23 µM with DMS-114 (setting [2]); 16 µM in the assay on PC-3 (setting [9]). The values for the IC50 with DU 145 (setting [7]) and with DU 145 (setting [2]) were 15 µM and 17 µM, respectively.

`N[C@H]1CC[C@H](Nc2nc(NCC(F)(F)F)c3ncn(C4CCCC4)c3n2)CC1` [Example 49, 2-[Trans-(4-aminocyclohexyl)amino]-6-[2,2,2-trifluoroethylamino]-9-cyclopentylpurine dihydrochloride]: the IC50 on cdk2/cyclin E was found to be 0.09 µM; at cdk4/cyclin D1 it was 2.2 µM; with MDA-MB-231 (setting [1]), 8.6 µM; with MDA-MB-231 (setting [2]) it was 6 µM; in the assay on MDA-MB-435 (setting [8]) it was 10 µM; in the assay on MDA-MB-435 (setting [2]) it was 12 µM. For the same compound, the IC50 is 7.3 µM in the assay on HT-29 (setting [3]); 6 µM in the assay on HT-29 (setting [2]); 6.6 µM with Colo-205 (setting [4]); 5.5 µM in the assay on Colo-205 (setting [2]); 2.2 µM in the assay on A549 (setting [5]); 5.6 µM with DMS-114 (setting [6]). Moreover, the figures for the IC50 with DU 145 (setting [7]) and in the assay with DU 145 (setting [2]) were 4.4 µM and 4.9 µM, respectively.

Take `N[C@H]1CC[C@H](Nc2nc(NCc3ccccc3Cl)c3ncn(C4CCCC4)c3n2)CC1` [Example 18, 2-[Trans-(4-aminocyclohexyl)amino]-6-[(2-chlorobenzyl)amino]-9-cyclopentylpurine dihydrochloride]: the IC50 on cdk2/cyclin E is 0.12 µM and 0.1 µM; at cdk4/cyclin D1 it was 1.3 µM and 1 µM; with MDA-MB-435 (setting [8]), 8 µM; in the assay on MDA-MB-435 (setting [2]), 8.2 µM; with HT-29 (setting [3]) it was 2.4 µM; in the assay with HT-29 (setting [2]), 2.5 µM and 4.1 µM. Besides, the IC50 with A549 (setting [5]) was 1.7 µM; in the assay with A549 (setting [2]), 2.2 µM and 1.8 µM.

As to `CNc1nc(N[C@H]2CC[C@H](N)CC2)nc2c1ncn2C1CCCC1` [Example 28, 2-[Trans-(4-aminocyclohexyl)amino]-6-(methylamino)-9-cyclopentylpurine dihydrochloride], the IC50 against cdk2/cyclin E is 0.038 µM; on cdk4/cyclin D1, 0.19 µM and 0.22 µM; in the assay on MDA-MB-231 (setting [1]), 1.3 µM; in the assay on MDA-MB-231 (setting [2]) it was 1.6 µM; with MDA-MB-435 (setting [8]), 3.2 µM; in the assay with MDA-MB-435 (setting [2]) it was 4.5 µM. Further, the IC50 in the assay on HT-29 (setting [3]) was 1.8 µM; in the assay on Colo-205 (setting [4]) it was 1.9 µM; in the assay on Colo-205 (setting [2]), 2.1 µM; in the assay with DMS-114 (setting [6]), 1.4 µM; with DU 145 (setting [7]) it was 1.7 µM; with DU 145 (Homo sapiens, DU-145, values without *), 0.86 µM.
